Holding throughout (test): whole-cell patch clamp, HEK293T cells expressing mutant
Common to all, as to assay type: cell-based
Common to all, as to details: for relative responsiveness: 100 µM agonist 2 s, relative to ATP (100%)

Assay [1] addresses T1, rP2X4R H286A mutant (Rattus norvegicus, UniProt P51577, H286A).
T1 construct: expressed in transfected cells; host or cells: HEK293T
T1 sequence (P51577 1-388 H286A): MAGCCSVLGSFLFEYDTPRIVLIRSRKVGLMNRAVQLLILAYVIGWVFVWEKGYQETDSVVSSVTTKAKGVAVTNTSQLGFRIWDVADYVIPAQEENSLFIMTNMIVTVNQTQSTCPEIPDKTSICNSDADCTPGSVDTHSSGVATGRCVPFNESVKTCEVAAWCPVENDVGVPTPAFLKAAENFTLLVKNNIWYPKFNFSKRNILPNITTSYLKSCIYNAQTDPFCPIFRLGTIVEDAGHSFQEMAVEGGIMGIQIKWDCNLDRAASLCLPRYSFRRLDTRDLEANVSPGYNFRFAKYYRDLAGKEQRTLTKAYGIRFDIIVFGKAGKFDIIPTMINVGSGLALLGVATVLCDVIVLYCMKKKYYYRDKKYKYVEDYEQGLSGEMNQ
The procedure: (§1) To express the recombinant channels, we used human embryonic kidney (HEK) 293T cells (American Type Culture Collection, Rockville, MD, USA) grown in Dulbecco modified Eagle’s medium (Thermo Fisher Scientific, Waltham, MA) supplemented with 10% fetal bovine serum (Sigma-Aldrich, St Louis, MO), 50 U/ml penicillin and 50 µg/ml streptomycin (both Thermo Fisher Scientific, Waltham, MA) in a humidified 5% CO2 and 95% air at 37°C. Cells were cultured in 75 cm^2 plastic culture flasks (NUNC, Rochester, NY) for 36–72 hours until reaching 80–95% confluence. Before the day of transfection, the cells were plated on 35 mm culture dishes (Sarstedt, Newton, NC) and incubated at 37°C for at least 24 h. Transfection was done using 2 µg of either WT or mutant receptor DNA with 2 µl of JetPrime reagent in 2 ml of Dulbecco modified Eagle’s medium, according to manufacturer’s instructions (PolyPlus-transfection, Illkirch, France). Transfected cells were identified by the fluorescence signal of EGFP using the Olympus IX71 inverted research microscope with fluorescence illuminators (Model IX71; Olympus, Melville, NY).
(§2) cDNAs encoding the sequences of the rP2X4 and mutated subunits were subcloned into the pIRES2-EGFP vector (Clontech, Mountain View, CA, USA). To generate the mutants, oligonucleotides (synthesized and provided by VBC-Genomics, Vienna, Austria or Sigma Aldrich) containing specific mutagenesis mismatches were introduced into the rP2X4/pIRES2-EGFP template using PfU Ultra DNA polymerase (Thermo Fisher Scientific). A High-Speed Plasmid Mini Kit (Geneaid, Taipei City, Taiwan) was used to isolate the plasmids for transfection. Dye terminator cycle sequencing (ABI PRISM 3100, Applied Biosystems, Foster City, CA) was used to identify and verify the presence of the mutations. The sequencing was performed by the DNA Sequencing Laboratory, Institute of Microbiology, ASCR, Prague.
(§3) ATP-induced currents were recorded from whole cells clamped to −60 mV using an Axopatch 200B patch-clamp amplifier (Axon Instruments, Union City, CA). The recordings were captured and stored using the Digidata 1322A and pClamp9 software package (Axon Instruments). During the experiments, the cell culture was perfused with a bath solution containing: 142 mM NaCl, 3 mM KCl, 2 mM CaCl2, 1 mM MgCl2, 10 mM 4-(2-Hydroxyethyl)piperazine-1-ethanesulfonic acid (HEPES) and 10 mM D-glucose, adjusted to pH 7.3 with 1 M NaOH. The patch electrodes were filled with a solution containing: 154 mM CsCl, 11 mM EGTA and 10 mM HEPES, adjusted to pH 7.2 with 1.6 M CsOH. The whole-cell configuration was used to abolish the influence of natively present metabotropic receptors for ATP and we used intracellular cesium to block any kind of possible background potassium conductance. Potency of ATP was measured based on the activation of naïve (not previously stimulated) receptors using a short (2–5 s) application of various concentrations of ATP. The results are expressed as molar concentration of ATP required to produce 50% of the maximal response (EC50). One or two responses were recorded from one cell, if not otherwise stated, and responses from different cells were pooled. The maximum current amplitude (Imax) was measured in response to application of supramaximal concentrations (100–1000 µM) of ATP. Responsiveness to P2XR agonists 2-MeS-ATP, ATPγS, BzATP, and α,β-meATP, all applied in 100 µM concentration, was expressed as percentage of response in comparison to 100 µM ATP treatment for selected mutants. In all mutants, the whole cell currents were also measured in the presence of 3 µM IVM, which was dissolved in dimethyl sulfoxide, stored in stock solutions at 10 mM, and diluted to required concentrations in bath solution in the day of experiment. The control and drug containing solutions were applied via a rapid (exchange time 30–40 ms) perfusion system (RSC-200, BIOLOGIC, Claix, France). All other chemicals are from Sigma-Aldrich. […]

Assay [2] has as its target T2, rP2X4R L214A mutant (Rattus norvegicus, UniProt P51577, L214A).
T2 construct: expressed in transfected cells; host or cells: HEK293T
T2 sequence (P51577 1-388 L214A): T1 sequence (P51577 1-388 H286A) with L214A, A286H
As to the method:
as §1, §2, §3

Assay [3] deals with T3, rP2X4R S212A mutant (Rattus norvegicus, UniProt P51577, S212A).
T3 construct: expressed in transfected cells; host or cells: HEK293T
T3 sequence (P51577 1-388 S212A): T1 sequence (P51577 1-388 H286A) with S212A, A286H
The procedure:
as §1, §2, §3

The mark [4] stands for this setting: 100 µM ATP 60 s, biexponential fit.
Setting [5] is: contribution of τdes2, 100 µM ATP 60 s.
The mark [6] stands for this setting: decay after removal of 1 or 3 µM ATP, 3 µM IVM.
Setting [7] is: naïve receptors, 2–5 s application.
Setting [8] is: 3 µM IVM 4-6 min vs IVM-untreated.

The text below walks through data of article PMC4232510, “Identification of Functionally Important Residues of the Rat P2X4 Receptor by Alanine Scanning Mutagenesis of the Dorsal Fin and Left Flipper Domains” (PLoS ONE, 2014).

Residue numbers refer to the chain shown, from its start.

Take “2′(3′-O-(4-Benzoylbenzoyl)adenosine 5′-triphosphate [BzATP]”: the relative responsiveness worked out at 25.6±4.0% in assay [1], 5.9±0.5 % in assay [2] and 47.5±5.2% in assay [3].
With `CSc1nc(N)c2ncn([C@@H]3O[C@H](COP(=O)(O)OP(=O)(O)OP(=O)(O)O)[C@@H](O)[C@H]3O)c2n1` [2-MeS-ATP, 2-(Methylthio)adenosine 5′-triphosphate], the relative responsiveness in assay [1] is 67.9±1.2%; in assay [2], 21.4±1.7 %; in assay [3], 65.1±19.7%.
The term EC50 denotes the concentration giving half of the maximal effect. Read a low EC50 as an effect from little substance. For `Nc1ncnc2c1ncn2[C@@H]1O[C@H](COP(=O)(O)OP(=O)(O)OP(=O)(O)O)[C@@H](O)[C@H]1O` [ATP], the τdes1 worked out at 4.0 ± 0.8 s in assay [1] (setting [4]), 1.9 ± 0.4 s in assay [2] (setting [4]) and 1.7 ± 0.4 s in assay [3] (setting [4]). The τdes2 was determined as 16.2 ± 1.6 s in assay [1] (setting [4]), 12.6 ± 1.9 s in assay [2] (setting [4]) and 11.4 ± 1.5 s in assay [3] (setting [4]). Further, the “Imax+IVM” value in assay [1] (ATP after 3 µM IVM 4-6 min) is listed as 4.2 ± 0.7 nA; in assay [2] (ATP after 3 µM IVM 4-6 min), 3.9 ± 0.8 nA; in assay [3] (ATP after 3 µM IVM 4-6 min) it was 3.4 ± 0.2 nA. Further, the “A2 /(A1+A2)” value in assay [1] (setting [5]) was determined as 55 ± 5%; in assay [2] (setting [5]), 62 ± 3%; in assay [3] (setting [5]), 62 ± 5%. Further, the “τoff +IVM” value turned out to be 12 ± 2.1 s in assay [1] (setting [6]), 3.4 ± 0.6 s in assay [2] (setting [6]) and 20 ± 5.0 s in assay [3] (setting [6]). For the same molecule, the EC50 amounted to 20 ± 2.9 µM in assay [1] (setting [7]), 25 ± 5.7 µM in assay [2] (setting [7]) and 4.8 ± 1.2 µM in assay [3] (setting [7]). Moreover, the τdes in assay [1] (weighted, 100 µM ATP 60 s) is 11 ± 1.4 s; in assay [2] (weighted, 100 µM ATP 60 s) it was 8.8 ± 1.3 s; in assay [3] (weighted, 100 µM ATP 60 s), 7.8 ± 1.1 s. Further, the “EC50 rightward shift compared to WT” value in assay [2] is given as “approximately 10 fold”. For the same molecule, the Imax in assay [2] (100–1000 µM ATP) was 1.0 ± 0.2 nA; in assay [3] (100–1000 µM ATP), 2.1 ± 0.2 nA.
As for `Nc1ncnc2c1ncn2[C@@H]1O[C@H](CO[P@](=O)(O)O[P@](=O)(O)O[P@@](=O)(O)S)[C@@H](O)[C@H]1O` [ATPγS, Adenosine 5′-(γ-thio)triphosphate], the relative responsiveness in assay [1] is 39.8±6.2%; in assay [2] it was 7.9±2.0 %; in assay [3] it was 61.7±3.9%.
`CC[C@H](C)[C@H]1O[C@]2(CC[C@@H]1C)C[C@@H]1C[C@@H](C/C=C(\C)[C@@H](O[C@H]3C[C@H](OC)[C@@H](O[C@H]4C[C@H](OC)[C@@H](O)[C@H](C)O4)[C@H](C)O3)[C@@H](C)/C=C/C=C3\CO[C@@H]4[C@H](O)C(C)=C[C@@H](C(=O)O1)[C@]34O)O2` [IVM, ivermectin]: the “Fold incr. Imax” value in assay [1] (setting [8]) is 1.9 ± 0.3 fold; in assay [2] (setting [8]), 3.7 ± 0.7 fold; in assay [3] (setting [8]), 1.6 ± 0.2 fold.
Take `Nc1ncnc2c1ncn2C1OC(COP(=O)(O)CP(=O)(O)OP(=O)(O)O)C(O)C1O` (stereo not drawn) [α,β-meATP, α,β-methyleneadenosine 5′-triphosphate]: the relative responsiveness is 30.0±6.8% in assay [1], 6.5±1.5 % in assay [2] and 19.2±6.2% in assay [3].
